Experimental data: PubChem BioAssay (NCI)
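At the GI50, growth is halved. TGI marks complete inhibition of growth.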

Tests used:
Test in all cases: NCI anticancer screen, dose series, 384-well format
SF-539 CNS = system: SF-539 CNS
HCC-2998 colon = system: HCC-2998 colon
NCI-H322M lung = system: NCI-H322M lung
MCF7 breast = system: MCF7 breast
SF-268 CNS = system: SF-268 CNS
OVCAR-4 ovarian = system: OVCAR-4 ovarian
EKVX NSCLC = system: EKVX NSCLC
NCI-H23 lung = system: NCI-H23 lung
SK-OV-3 ovarian = system: SK-OV-3 ovarian
MOLT-4 leukemia = system: MOLT-4 leukemia
MDA-MB-231 breast = system: MDA-MB-231 breast
MALME-3M melanoma = system: MALME-3M melanoma
UO-31 renal = system: UO-31 renal
A549 NSCLC = system: A549 NSCLC
DU-145 prostate = system: DU-145 prostate
SK-MEL-28 melanoma = system: SK-MEL-28 melanoma
U251 glioblastoma = system: U251 glioblastoma
NCI-H522 lung = system: NCI-H522 lung
BT-549 breast = system: BT-549 breast
COLO 205 colon = system: COLO 205 colon
RPMI-8226 leukemia = system: RPMI-8226 leukemia
SN12C renal = system: SN12C renal
MDA-MB-468 breast = system: MDA-MB-468 breast
IGROV1 ovarian = system: IGROV1 ovarian
786-0 renal = system: 786-0 renal
HCT-15 colon = system: HCT-15 colon

Question: What does the source list for COc1ccc(/C=C\c2cc(OC)c(OC)c(OC)c2)cc1NC(=O)[C@@H](N)CO?
Answer: TGI (SF-539 CNS): 27.7 nM; GI50 (HCC-2998 colon): < 10 nM; TGI (HCC-2998 colon): 29.7 nM; GI50 (NCI-H322M lung): < 10 nM; TGI (NCI-H322M lung): > 100000 nM; GI50 (MCF7 breast): 24.4 nM; TGI (MCF7 breast): 12700 nM; GI50 (SF-268 CNS): < 10 nM; TGI (SF-268 CNS): 78.5 nM; GI50 (OVCAR-4 ovarian): 13.7 nM; TGI (OVCAR-4 ovarian): > 100000 nM; GI50 (EKVX NSCLC): < 10 nM; TGI (EKVX NSCLC): > 100000 nM; GI50 (NCI-H23 lung): < 10 nM; TGI (NCI-H23 lung): 16.3 nM; GI50 (SK-OV-3 ovarian): < 10 nM; TGI (SK-OV-3 ovarian): 12000 nM; GI50 (MOLT-4 leukemia): < 10 nM; TGI (MOLT-4 leukemia): < 10 nM; GI50 (MDA-MB-231 breast): < 10 nM; TGI (MDA-MB-231 breast): > 100000 nM; GI50 (MALME-3M melanoma): < 10 nM; TGI (MALME-3M melanoma): > 100000 nM; GI50 (UO-31 renal): < 10 nM; TGI (UO-31 renal): > 100000 nM; GI50 (A549 NSCLC): < 10 nM; TGI (A549 NSCLC): > 100000 nM; GI50 (DU-145 prostate): < 10 nM; TGI (DU-145 prostate): 70.1 nM; GI50 (SK-MEL-28 melanoma): < 10 nM; TGI (SK-MEL-28 melanoma): > 100000 nM; GI50 (U251 glioblastoma): < 10 nM; TGI (U251 glioblastoma): 17900 nM; GI50 (NCI-H522 lung): < 10 nM; TGI (NCI-H522 lung): < 10 nM; GI50 (BT-549 breast): < 10 nM; TGI (BT-549 breast): 25.2 nM; GI50 (COLO 205 colon): < 10 nM; TGI (COLO 205 colon): < 10 nM; GI50 (RPMI-8226 leukemia): < 10 nM; TGI (RPMI-8226 leukemia): < 10 nM; GI50 (SN12C renal): < 10 nM; TGI (SN12C renal): 11900 nM; GI50 (MDA-MB-468 breast): 13.3 nM; TGI (MDA-MB-468 breast): 29.7 nM; GI50 (IGROV1 ovarian): < 10 nM; TGI (IGROV1 ovarian): 35900 nM; GI50 (786-0 renal): < 10 nM; TGI (786-0 renal): 58.2 nM; GI50 (HCT-15 colon): < 10 nM; TGI (HCT-15 colon): 92.2 nM
